Measurements from PubChem BioAssay (NCI).
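Interpolation was linear, between the two tested concentrations surrounding the appropriate level; five concentrations were tested over 48 hours in 96-well plates. Definition used: TGI = concentration required for complete inhibition of growth.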

Legend:
Assay in all cases: NCI tumour cell line growth inhibition, 48 h
786-0 renal = tested on: 786-0 renal
A498 renal = tested on: A498 renal
A549 NSCLC = tested on: A549 NSCLC
ACHN renal = tested on: ACHN renal
CAKI-1 renal = tested on: CAKI-1 renal
CCRF-CEM leukemia = tested on: CCRF-CEM leukemia
COLO 205 colon = tested on: COLO 205 colon
DLD-1 colon = tested on: DLD-1 colon
DMS 114 small cell lung = tested on: DMS 114 small cell lung
DMS 273 small cell lung = tested on: DMS 273 small cell lung
EKVX NSCLC = tested on: EKVX NSCLC
HCC-2998 colon = tested on: HCC-2998 colon
HCT-116 colon = tested on: HCT-116 colon
HCT-15 colon = tested on: HCT-15 colon
HL-60(TB) leukemia = tested on: HL-60(TB) leukemia
HOP-18 NSCLC = tested on: HOP-18 NSCLC
HOP-62 NSCLC = tested on: HOP-62 NSCLC
HOP-92 NSCLC = tested on: HOP-92 NSCLC
HT29 colon = tested on: HT29 colon
IGROV1 ovarian = tested on: IGROV1 ovarian
K-562 leukemia = tested on: K-562 leukemia
KM12 colon = tested on: KM12 colon
KM20L2 colon = tested on: KM20L2 colon
LOX IMVI melanoma = tested on: LOX IMVI melanoma
LXFL 529 NSCLC = tested on: LXFL 529 NSCLC
M14 melanoma = tested on: M14 melanoma
M19-MEL melanoma = tested on: M19-MEL melanoma
MALME-3M melanoma = tested on: MALME-3M melanoma
MOLT-4 leukemia = tested on: MOLT-4 leukemia
NCI-H226 lung = tested on: NCI-H226 lung
NCI-H23 lung = tested on: NCI-H23 lung
NCI-H460 lung = tested on: NCI-H460 lung
NCI-H522 lung = tested on: NCI-H522 lung
OVCAR-3 ovarian = tested on: OVCAR-3 ovarian
OVCAR-4 ovarian = tested on: OVCAR-4 ovarian
OVCAR-5 ovarian = tested on: OVCAR-5 ovarian
OVCAR-8 ovarian = tested on: OVCAR-8 ovarian
RPMI-8226 leukemia = tested on: RPMI-8226 leukemia
RXF 393 renal = tested on: RXF 393 renal
RXF-631 renal = tested on: RXF-631 renal
SF-268 CNS = tested on: SF-268 CNS
SF-295 CNS = tested on: SF-295 CNS
SF-539 CNS = tested on: SF-539 CNS
SK-MEL-2 melanoma = tested on: SK-MEL-2 melanoma
SK-MEL-28 melanoma = tested on: SK-MEL-28 melanoma
SK-MEL-5 melanoma = tested on: SK-MEL-5 melanoma
SK-OV-3 ovarian = tested on: SK-OV-3 ovarian
SN12C renal = tested on: SN12C renal
SNB-75 CNS = tested on: SNB-75 CNS
SNB-78 CNS = tested on: SNB-78 CNS
SR leukemia = tested on: SR leukemia
SW-620 colon = tested on: SW-620 colon
TK-10 renal = tested on: TK-10 renal
U251 CNS = tested on: U251 CNS
UACC-257 melanoma = tested on: UACC-257 melanoma
UACC-62 melanoma = tested on: UACC-62 melanoma
UO-31 renal = tested on: UO-31 renal
XF 498 CNS = tested on: XF 498 CNS

Structure (SMILES): O=[N+]([O-])c1ccc(C2CC(c3ccccc3Cl)=Nc3ccccc3S2)cc1 (stereo not drawn)
- TGI (786-0 renal): 12.3 µM
- TGI (A498 renal): 17.4 µM
- TGI (A549 NSCLC): 33.4 µM
- TGI (ACHN renal): 42.9 µM
- TGI (CAKI-1 renal): > 73.5 µM
- TGI (CCRF-CEM leukemia): 6.77 µM
- TGI (COLO 205 colon): > 57.6 µM
- TGI (DLD-1 colon): 7.24 µM
- TGI (DMS 114 small cell lung): 8.29 µM
- TGI (DMS 273 small cell lung): 33.8 µM
- TGI (EKVX NSCLC): 31 µM
- TGI (HCC-2998 colon): 54.2 µM
- TGI (HCT-116 colon): 4.92 µM
- TGI (HCT-15 colon): 10.9 µM
- TGI (HL-60(TB) leukemia): 6.36 µM
- TGI (HOP-18 NSCLC): 25.8 µM
- TGI (HOP-62 NSCLC): 68.2 µM
- TGI (HOP-92 NSCLC): 29.5 µM
- TGI (HT29 colon): 45.9 µM
- TGI (IGROV1 ovarian): 29.6 µM
- TGI (K-562 leukemia): 6.35 µM
- TGI (KM12 colon): 13.4 µM
- TGI (KM20L2 colon): 46.6 µM
- TGI (LOX IMVI melanoma): 11.8 µM
- TGI (LXFL 529 NSCLC): 11.8 µM
- TGI (M14 melanoma): 29.4 µM
- TGI (M19-MEL melanoma): 29.1 µM
- TGI (MALME-3M melanoma): 24.9 µM
- TGI (MOLT-4 leukemia): 5.37 µM
- TGI (NCI-H226 lung): 27.9 µM
- TGI (NCI-H23 lung): 10.8 µM
- TGI (NCI-H460 lung): 45.1 µM
- TGI (NCI-H522 lung): 8.16 µM
- TGI (OVCAR-3 ovarian): 34.2 µM
- TGI (OVCAR-4 ovarian): 24.5 µM
- TGI (OVCAR-5 ovarian): 62.7 µM
- TGI (OVCAR-8 ovarian): 5.59 µM
- TGI (RPMI-8226 leukemia): 5.14 µM
- TGI (RXF 393 renal): 12.6 µM
- TGI (RXF-631 renal): 21.4 µM
- TGI (SF-268 CNS): 18.9 µM
- TGI (SF-295 CNS): 38.5 µM
- TGI (SF-539 CNS): 17.7 µM
- TGI (SK-MEL-2 melanoma): 24.5 µM
- TGI (SK-MEL-28 melanoma): 22.7 µM
- TGI (SK-MEL-5 melanoma): 12.8 µM
- TGI (SK-OV-3 ovarian): > 85.3 µM
- TGI (SN12C renal): 17.4 µM
- TGI (SNB-75 CNS): 44.1 µM
- TGI (SNB-78 CNS): > 94.2 µM
- TGI (SR leukemia): 5.27 µM
- TGI (SW-620 colon): 4.78 µM
- TGI (TK-10 renal): > 79.1 µM
- TGI (U251 CNS): 12.2 µM
- TGI (UACC-257 melanoma): 35.5 µM
- TGI (UACC-62 melanoma): 16.1 µM
- TGI (UO-31 renal): 36.8 µM
- TGI (XF 498 CNS): 19.9 µM
